Source: patent publication US7989422B2, “Antibacterial agents” (Alchemia Limited, priority 2005, dated 2011)

Assays:
Type in all cases: cell-based
[1] = system: Enterococcus faecalis ATCC 29212; test: MIC against E. faecalis, microbroth dilution; details: MIC class
Outline: (§1)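 CLSI microbroth dilution in Mueller Hinton broth, compounds diluted from a 128 μg/mL test solution. Wells received 5 μL of a 1:10 dilution of a 0.5 McFarland suspension and were incubated 18-24 h at 35° C without CO2, then examined for growth. Each well was then subcultured onto horse blood agar for another 18-24 h.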

[2] = system: Staphylococcus aureus (MRSA) ATCC 33591; test: MIC against MRSA, microbroth dilution; details: MIC class
Outline: as §1

E. Faecium 51299 VanB = test: MIC against vancomycin-resistant enterococcus 51299 (VanB), microbroth dilution; details: MIC class; ATCC 51299 VanB
Outline: as §1

[3] = system: Enterococcus faecium ATCC 35667; test: MIC against E. faecium, microbroth dilution; details: MIC class
Outline: as §1

[4] = system: Staphylococcus aureus ATCC 25923; test: MIC against S. aureus, microbroth dilution in MH broth, without or with 5% horse serum; details: MIC class; S. aureus ATCC 25923
Outline: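 Single-concentration screen at 128 μg/mL in MH broth, then CLSI microbroth twofold dilution in MH broth without or with 5% heat-inactivated horse serum. Inoculum from 0.5 McFarland suspension diluted 1:10; plates incubated 35° C, non-CO2, 18-24 h, then scored for visible growth.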

Row | SMILES | E. Fecalis 29212 activity [1] | S. Aureus 33591 MRSA activity [2] | E. Faecium 51299 VanB activity (E. Faecium 51299 VanB) | E. Faecium 35667 activity [3] | S. Aureus 25923 activity [4]
1 | CCCCCCCCCCCCC(N)C(=O)NC1C(CO)OCC(Nc2ccc(C(F)(F)F)cc2N)C1O (centres unmarked) [Compound 207] | + (“+”: MIC (μg/mL): 64 ≧ MIC > 16) | + (“+”: MIC (μg/mL): 64 ≧ MIC > 16) | + (“+”: MIC (μg/mL): 64 ≧ MIC > 16) | + (“+”: MIC (μg/mL): 64 ≧ MIC > 16) | + (“+”: MIC (μg/mL): 64 ≧ MIC > 16)
2 | O=C(Nc1ccc(Cl)c(C(F)(F)F)c1)NC1COC(CO)C(n2c(NCc3ccc(Cl)cc3)nc3cc(C(F)(F)F)ccc32)C1O (centres unmarked) [Compound 247] | ++ (“++”: MIC (μg/mL): MIC ≦ 16) | ++ (“++”: MIC (μg/mL): MIC ≦ 16) | ++ (“++”: MIC (μg/mL): MIC ≦ 16) | − (“−”: MIC (μg/mL): MIC > 64) | ++ (“++”: MIC (μg/mL): MIC ≦ 16)
3 | CCCCCCCCCCCCC(N)C(=O)NC1C(CO)OCC(Nc2c(Cl)cc(C(F)(F)F)cc2[N+](=O)[O-])C1O (centres unmarked) [Compound 198] | + (“+”: MIC (μg/mL): 64 ≧ MIC > 16) | + (“+”: MIC (μg/mL): 64 ≧ MIC > 16) | + (“+”: MIC (μg/mL): 64 ≧ MIC > 16) | + (“+”: MIC (μg/mL): 64 ≧ MIC > 16) | + (“+”: MIC (μg/mL): 64 ≧ MIC > 16)
4 | CCCCCCCCCCCCC(N)C(=O)NC1C(CO)OCC(n2c(O)nc3cc(C(F)(F)F)cc(Cl)c32)C1O (centres unmarked) [Compound 185] | ++ (“++”: MIC (μg/mL): MIC ≦ 16) | ++ (“++”: MIC (μg/mL): MIC ≦ 16) | + (“+”: MIC (μg/mL): 64 ≧ MIC > 16) | ++ (“++”: MIC (μg/mL): MIC ≦ 16) | + (“+”: MIC (μg/mL): 64 ≧ MIC > 16)
5 | Nc1ccccc1OC1C(NC(=O)Nc2ccc(Cl)c(C(F)(F)F)c2)COC(CO)C1NS(=O)(=O)c1ccc(-c2ccccc2)cc1 (centres unmarked) [Compound 62] | − (“−”: MIC (μg/mL): MIC > 64) | ++ (“++”: MIC (μg/mL): MIC ≦ 16) | − (“−”: MIC (μg/mL): MIC > 64) | − (“−”: MIC (μg/mL): MIC > 64) | + (“+”: MIC (μg/mL): 64 ≧ MIC > 16)
6 | NC(C(=O)Nc1nc2cc(C(F)(F)F)ccc2n1C1C(CO)OCC(NS(=O)(=O)c2ccc(C(F)(F)F)cc2)C1O)c1ccc(-c2ccccc2)cc1 (centres unmarked) [Compound 240] | ++ (“++”: MIC (μg/mL): MIC ≦ 16) | ++ (“++”: MIC (μg/mL): MIC ≦ 16) | − (“−”: MIC (μg/mL): MIC > 64) | − (“−”: MIC (μg/mL): MIC > 64) | ++ (“++”: MIC (μg/mL): MIC ≦ 16)
7 | Nc1ccccc1OC1C(NS(=O)(=O)c2ccc(C(F)(F)F)cc2)COC(CO)C1NC(=O)C(N)Cc1ccc(-c2ccccc2)cc1 (centres unmarked) [Compound 79] | − (“−”: MIC (μg/mL): MIC > 64) | + (“+”: MIC (μg/mL): 64 ≧ MIC > 16) | − (“−”: MIC (μg/mL): MIC > 64) | − (“−”: MIC (μg/mL): MIC > 64) | + (“+”: MIC (μg/mL): 64 ≧ MIC > 16)
8 | NC(CC(=O)Nc1nc2cc(C(F)(F)F)ccc2n1C1C(CO)OCC(NS(=O)(=O)c2ccc(C(F)(F)F)cc2)C1O)c1ccc(-c2ccccc2)cc1 (centres unmarked) [Compound 242] | ++ (“++”: MIC (μg/mL): MIC ≦ 16) | ++ (“++”: MIC (μg/mL): MIC ≦ 16) | − (“−”: MIC (μg/mL): MIC > 64) | ++ (“++”: MIC (μg/mL): MIC ≦ 16) | ++ (“++”: MIC (μg/mL): MIC ≦ 16)
9 | CCCCCC(C)CCC(=O)NC1C(CO)OCC(n2c(S)nc3cc(C(F)(F)F)cc(Cl)c32)C1O (centres unmarked) [Compound 178] | − (“−”: MIC (μg/mL): MIC > 64) | − (“−”: MIC (μg/mL): MIC > 64) | − (“−”: MIC (μg/mL): MIC > 64) | − (“−”: MIC (μg/mL): MIC > 64) | + (“+”: MIC (μg/mL): 64 ≧ MIC > 16)
10 | O=C(Nc1ccc(Cl)c(C(F)(F)F)c1)NC1COC(CO)C(n2c(NCc3ccccc3)nc3cc(C(F)(F)F)ccc32)C1O (centres unmarked) [Compound 246] | ++ (“++”: MIC (μg/mL): MIC ≦ 16) | ++ (“++”: MIC (μg/mL): MIC ≦ 16) | + (“+”: MIC (μg/mL): 64 ≧ MIC > 16) | + (“+”: MIC (μg/mL): 64 ≧ MIC > 16) | ++ (“++”: MIC (μg/mL): MIC ≦ 16)
